Assay results: patent US12495798B2, “Nicotinamide compound and herbicidal composition comprising compound” (KOREA RESEARCH INSTITUTE OF CHEMICAL TECHNOLOGY, priority 2019, dated 2025)

What was measured:
Assay type in all cases: in vivo
sorghum [1] = assay: Herbicidal activity test against upland field weeds (foliar treatment test); conditions: 50 g ai/ha, scale 0-100; for plant injury at 50 g/ha: Sorghum
Procedure, shortened: (§1)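 Greenhouse-grown plants (30±5 °C, 14/10 h light/dark) foliar hand-sprayed with compound in 50% acetone, 0.1% Tween-20 at 50 or 75 g a.i./ha. Control visually scored 0 (none) to 100 (complete) versus untreated after 14 days, or 21 days if needed.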

barnyard grass [2] = assay: as above; set-up: key to Foliar treatment herbicidal activity, barnyard grass: 0 (no control); 100 (complete control); conditions: 50 g ai/ha, scale 0-100
Procedure, shortened: as §1

quack grass [3] = assay: as above; set-up: key to Foliar treatment herbicidal activity, quack grass: 0 (no control); 100 (complete control); conditions: 50 g ai/ha, scale 0-100
Procedure, shortened: as §1

crabgrass [4] = assay: as above; set-up: key to Foliar treatment herbicidal activity, Crabgrass: 0 (no control); 100 (complete control); conditions: 50 g ai/ha, scale 0-100
Procedure, shortened: as §1

fall panicum [5] = assay: as above; conditions: 50 g ai/ha, scale 0-100; for pest or weed control at 50 g/ha: Panicum dichotomiflorum
Procedure, shortened: as §1

black nightshade [6] = assay: as above; set-up: key to Foliar treatment herbicidal activity, black nightshade: 0 (no control); 100 (complete control); conditions: 50 g ai/ha, scale 0-100
Procedure, shortened: as §1

indian jointvetch [7] = assay: as above; set-up: key to Foliar treatment herbicidal activity, Indian jointvetch: 0 (no control); 100 (complete control); conditions: 50 g ai/ha, scale 0-100
Procedure, shortened: as §1

velvetleaf [8] = assay: as above; set-up: key to Foliar treatment herbicidal activity, velvet leaf: 0 (no control); 100 (complete control); conditions: 50 g ai/ha; for Foliar treatment herbicidal activity, velvet leaf: scale 0-100
Procedure, shortened: as §1

cocklebur [9] = assay: as above; set-up: key to Foliar treatment herbicidal activity, Cocklebur: 0 (no control); 100 (complete control); conditions: 50 g ai/ha, scale 0-100
Procedure, shortened: as §1

bindweed [10] = assay: as above; set-up: key to Foliar treatment herbicidal activity, Bindweed: 0 (no control); 100 (complete control); conditions: 50 g ai/ha, scale 0-100
Procedure, shortened: as §1

sorghum [11] = assay: Herbicidal activity test against upland field weeds (soil treatment test); set-up: key to Soil treatment herbicidal activity, Sorghum: 0 (no control); 100 (complete control); conditions: 50 g ai/ha, scale 0 (no control) to 100 (complete control)
Procedure, shortened: (§2)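 Pre-emergence soil surface spray, day after sowing, into sandy loam pots with fertilizer; compounds at 50 or 75 g a.i./ha in 50% acetone, 0.1% Tween-20. Greenhouse at 30±5 °C, 14/10 h light/dark; visual control rated 0–100 against untreated after 14 days (21 if needed).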

barnyard grass [12] = assay: as above; set-up: key to Soil treatment herbicidal activity, barnyard grass: 0 (no control); 100 (complete control); conditions: 50 g ai/ha, scale 0 (no control) to 100 (complete control)
Procedure, shortened: as §2

quack grass [13] = assay: as above; set-up: key to Soil treatment herbicidal activity, quack grass: 0 (no control); 100 (complete control); conditions: 50 g ai/ha, scale 0 (no control) to 100 (complete control)
Procedure, shortened: as §2

crabgrass [14] = assay: as above; set-up: key to Soil treatment herbicidal activity, Crabgrass: 0 (no control); 100 (complete control); conditions: 50 g ai/ha, scale 0 (no control) to 100 (complete control)
Procedure, shortened: as §2

fall panicum [15] = assay: as above; set-up: key to Soil treatment herbicidal activity, Fall panicum: 0 (no control); 100 (complete control); conditions: 50 g ai/ha, scale 0 (no control) to 100 (complete control)
Procedure, shortened: as §2

black nightshade [16] = assay: as above; conditions: 50 g ai/ha, scale 0 (no control) to 100 (complete control); for pest or weed control at 50 g/ha: Solanum nigrum
Procedure, shortened: as §2

indian jointvetch [17] = assay: as above; set-up: key to Soil treatment herbicidal activity, Indian jointvetch: 0 (no control); 100 (complete control); conditions: 50 g ai/ha, scale 0 (no control) to 100 (complete control)
Procedure, shortened: as §2

velvetleaf [18] = assay: as above; set-up: key to Soil treatment herbicidal activity, velvet leaf: 0 (no control); 100 (complete control); conditions: 50 g ai/ha, scale 0 (no control) to 100 (complete control)
Procedure, shortened: as §2

cocklebur [19] = assay: as above; set-up: key to Soil treatment herbicidal activity, Cocklebur: 0 (no control); 100 (complete control); conditions: 50 g ai/ha, scale 0 (no control) to 100 (complete control)
Procedure, shortened: as §2

bindweed [20] = assay: as above; set-up: key to Soil treatment herbicidal activity, Bindweed: 0 (no control); 100 (complete control); conditions: 50 g ai/ha, scale 0 (no control) to 100 (complete control)
Procedure, shortened: as §2

Cn1nnc(C[S+]([O-])Cc2nc(C(F)(F)F)ccc2C(=O)Nc2nnnn2C)n1 (stereo not drawn) [Compound No. 2-104, N-(1-methyl-1H-tetrazol-5-yl)-2-((((2-methyl-2H-tetrazol-5-yl)methyl)sulfinyl)methyl)-6-(trifluoromethyl)nicotinamide]
0: Soil treatment herbicidal activity, Sorghum (sorghum [11]) | Soil treatment herbicidal activity, barnyard grass (barnyard grass [12]) | Soil treatment herbicidal activity, quack grass (quack grass [13]) | Soil treatment herbicidal activity, Crabgrass (crabgrass [14]) | Soil treatment herbicidal activity, Fall panicum (fall panicum [15]) | Soil treatment herbicidal activity, Indian jointvetch (indian jointvetch [17]) | Soil treatment herbicidal activity, Cocklebur (cocklebur [19]) | Soil treatment herbicidal activity, Bindweed (bindweed [20])
100: Foliar treatment herbicidal activity, Crabgrass (crabgrass [4]) | Foliar treatment herbicidal activity, black nightshade (black nightshade [6]) | Foliar treatment herbicidal activity, Indian jointvetch (indian jointvetch [7]) | Foliar treatment herbicidal activity, velvet leaf (velvetleaf [8]) | Foliar treatment herbicidal activity, Cocklebur (cocklebur [9]) | Foliar treatment herbicidal activity, Bindweed (bindweed [10]) | Soil treatment herbicidal activity, velvet leaf (velvetleaf [18])
30%: pest or weed control at 50 g/ha (quack grass [3])
80%: plant injury at 50 g/ha (sorghum [1])
98%: pest or weed control at 50 g/ha (barnyard grass [2]; Echinochloa crus-galli) | pest or weed control at 50 g/ha (fall panicum [5]) | pest or weed control at 50 g/ha (black nightshade [16])

Cn1nnc(C[S+]([O-])Cc2nc(C(F)F)ccc2C(=O)Nc2nnnn2C)n1 (stereo not drawn) [Compound No. 2-111, 6-(difluoromethyl)-N-(1-methyl-1H-tetrazol-1-yl)-2-((((2-methyl-2H-tetrazol-5-yl)methyl)sulfinyl)methyl)nicotinamide]
95: Foliar treatment herbicidal activity, Fall panicum (fall panicum [5]) | Foliar treatment herbicidal activity, Indian jointvetch (indian jointvetch [7])
80: Foliar treatment herbicidal activity, velvet leaf (velvetleaf [8])
70: Foliar treatment herbicidal activity, Sorghum (sorghum [1])
90: Soil treatment herbicidal activity, black nightshade (black nightshade [16])
100: Foliar treatment herbicidal activity, barnyard grass (barnyard grass [2]) | Foliar treatment herbicidal activity, black nightshade (black nightshade [6]) | Foliar treatment herbicidal activity, Cocklebur (cocklebur [9])
98: Foliar treatment herbicidal activity, Crabgrass (crabgrass [4]) | Foliar treatment herbicidal activity, Bindweed (bindweed [10])
0: Foliar treatment herbicidal activity, quack grass (quack grass [3]) | Soil treatment herbicidal activity, Sorghum (sorghum [11]) | Soil treatment herbicidal activity, barnyard grass (barnyard grass [12]) | Soil treatment herbicidal activity, quack grass (quack grass [13]) | Soil treatment herbicidal activity, Crabgrass (crabgrass [14]) | Soil treatment herbicidal activity, Fall panicum (fall panicum [15]) | Soil treatment herbicidal activity, Indian jointvetch (indian jointvetch [17]) | Soil treatment herbicidal activity, velvet leaf (velvetleaf [18]) | Soil treatment herbicidal activity, Cocklebur (cocklebur [19]) | Soil treatment herbicidal activity, Bindweed (bindweed [20])

Cn1nnc(CSCc2nc(C(F)F)ccc2C(=O)N(C(=O)c2ccccc2)c2nnnn2C)n1 [Compound No. 2-112, N-benzoyl-6-(difluoromethyl)-N-(1-methyl-1H-tetrazol-5-yl)-2-((((2-methyl-2H-tetrazol-5-yl)methyl)thio)methyl)nicotinamide]
100: Foliar treatment herbicidal activity, barnyard grass (barnyard grass [2]) | Foliar treatment herbicidal activity, black nightshade (black nightshade [6]) | Soil treatment herbicidal activity, Indian jointvetch (indian jointvetch [17]) | Soil treatment herbicidal activity, velvet leaf (velvetleaf [18])
98%: pest or weed control at 50 g/ha (cocklebur [9]; Xanthium strumarium) | pest or weed control at 50 g/ha (bindweed [10])
90%: pest or weed control at 50 g/ha (crabgrass [4]; Digitaria sanguinalis) | pest or weed control at 50 g/ha (velvetleaf [8]; Abutilon theophrasti, scale 0-100, read-out: Foliar treatment herbicidal activity, velvet leaf) | pest or weed control at 50 g/ha (black nightshade [16])
95%: pest or weed control at 50 g/ha (indian jointvetch [7])
0: Foliar treatment herbicidal activity, quack grass (quack grass [3]) | Soil treatment herbicidal activity, Sorghum (sorghum [11]) | Soil treatment herbicidal activity, barnyard grass (barnyard grass [12]) | Soil treatment herbicidal activity, quack grass (quack grass [13]) | Soil treatment herbicidal activity, Crabgrass (crabgrass [14]) | Soil treatment herbicidal activity, Fall panicum (fall panicum [15]) | Soil treatment herbicidal activity, Cocklebur (cocklebur [19]) | Soil treatment herbicidal activity, Bindweed (bindweed [20])
50%: plant injury at 50 g/ha (sorghum [1])
70%: pest or weed control at 50 g/ha (fall panicum [5])
